{"source": "patent EP1285918A1", "about": "“C7 Ester substituted taxanes as antitumor agents” (Florida State University Research Foundation, Inc., priority 2001, dated 2003)", "key": {"HCT116": {"tested_on": "HCT116", "assay": "In Vitro cytotoxicity measured by the cell colony formation assay", "assay_type": "cell-based", "conditions": "Homo sapiens, HCT-116; 72 h drug incubation, colonies counted after 7 days; concentration producing 50% inhibition of colony formation; read-out: IN VITRO ID 50 (nm) HCT116"}, "[1]": {"tested_on": "MX-1 Human Breast Carcinoma Xenograft", "conditions": "i.v. qd x 1 (Taxol 36 mg/kg split dose, 1393 72.6 mg/kg)", "experimental": "Antitumor compounds were formulated for an i.v. dosing regime (single i.v. bolus on qd x 1 schedule) prepared in the following vehicle: 5% ethanol, 5% Cremophor and 90% isotonic saline. […] Other compounds were similarly formulated. […] The dosing volume was 0.3 ml per 20 g mouse.\nAll vehicle control animals in the split dosing regimes were dosed twice intravenously with half the total volume being given separated by one hour. The study was terminated on Day 60.\n(§1) The mean days of survival is the number of days after which a neoplasm reached a size of 2.0 g and the animal was euthanized. A complete response is obtained if the tumor is not palpable at the end of the study. A partial response is obtained if the tumor shrinks to a size smaller than its size on Day 1 of the study. […]"}, "[2]": {"tested_on": "A2780 Human Ovarian Carcinoma Xenografts", "experimental": "Other antitumor compounds were similarly formulated. […] The dosing volume was 0.3 ml per 20 g mouse.\nFemale NCr-nude mice (implanted subcutaneously with 1 mm^3 A2780 ovarian carcinoma fragments in the flank) were sorted into treatment groups of five mice each, except for the Taxotere treatment group including six mice. […] Dosing was initiated on Day 1. The antitumor compounds were given i.v. at an estimated maximum tolerated dose (MTD) appropriate for each agent on a qd x 1 schedule (single administration of compound). […] Taxotere was given i.v. on a qd x 1 schedule at a dose of 70 mg/kg. The vehicle was administered i.v. to control mice in Group 1 on the qd x 1 schedule. Treatment groups are detailed in Table 7. The study was terminated on Day 60.\nThe results are summarized in Table 8 and include mean days of survival (MDS), number of toxic deaths, number of survivors, number of complete or partial responses, and number with stable disease. The mean days of survival is the number of days after which a neoplasm reached a size of 2.0 g and the animal was euthanized. A complete response is obtained if the tumor is not palpable at the end of the study. A partial response is obtained if the tumor shrinks to a size smaller than its size on Day 1 of the study."}, "[3]": {"tested_on": "SKMES Human Lung Carcinoma Xenograft", "conditions": "40 mg/kg single oral bolus Day 1, 6 mice/group, study end Day 60", "experimental": "Antitumor compounds were formulated for oral administration over a wide dose range in a study to investigate the efficacy of this compound against the SKMES human lung cancer xenograft. The antitumor compounds were prepared in the following vehicle: 5% ethanol, 5% Cremophor and 90% isotonic saline.\nFemale Nu/Nu mice (6-8 weeks of age; implanted with 1 mm^3 SKMES lung carcinoma fragments in the flank) were sorted into treatment groups of six mice each. SKMES size ranges and group mean SKMES size ranges were 126-448 mg and 238-241 mg, respectively. […] Treatments were administered as a single oral bolus on Day 1, and the study was terminated on Day 60.\nas §1, with “which a SKMES neoplasm reached” for “which a neoplasm reached”"}, "[4]": {"tested_on": "HCT116 human colon carcinoma xenograft", "conditions": "18 mg/kg i.v. qd x 5, 10 mice/group, study end Day 60", "excerpt": "Six groups consisting of ten mice in each group were made up of female Nu/Nu mice (8-9 weeks of age; implanted with 1 mm^3 HCT116 human […] carcinoma fragments in the flank). Another six groups consisting of ten mice in each group were made up of male Nu/Nu mice (6-7 weeks of age; implanted with 1 mm^3 HCT116 human […] carcinoma fragments in the flank). […] The study was terminated on Day 60.\nThe results are summarized in Table 19 for the female mice and Table 20 for the male mice. Included are mean days of survival (MDS), number of toxic deaths, number of survivors, number of complete or partial responses, and number with stable disease. The mean days of survival is the number of days after which an […] neoplasm reached a size of 1.5 g and the animal was euthanized. A complete response is obtained if the tumor is not palpable at the end of the study. A partial response is obtained if the tumor shrinks to a size smaller than its size on Day 1 of the study. […]"}, "[5]": {"conditions": "Taxol i.p. 15 mg/kg qd x 5, 5 mice, Day 60"}, "[6]": {"conditions": "i.v. qd x 1 (mg/kg: Taxol 24, 1351 75.3, 1401 107.6, 1418 107.6, Taxotere 70), Day 60"}}, "note": "Where two headings read alike, the source gives them in different places."}
{"smiles": "CC(=O)O[C@H]1C(=O)[C@@]2(C)[C@H]([C@H](OC(=O)c3ccccc3)[C@]3(O)C[C@H](OC(=O)[C@H](O)[C@@H](NC(=O)c4ccccc4)c4ccccc4)C(C)=C1C3(C)C)[C@]1(OC(C)=O)CO[C@@H]1C[C@@H]2O", "note": "[Taxol, paclitaxel, reference compound]", "values": [{"measurement": "IC50", "setting": "HCT116", "value": 2.1, "unit": "nM"}, {"measurement": "Complete Response", "setting": "[1]; 6 mice/group, Day 60", "value": 0}, {"measurement": "Partial Response", "setting": "[1]; 6 mice/group, Day 60", "value": 0}, {"measurement": "Survivors", "setting": "[1]; 6 mice/group, Day 60", "value": 1}, {"measurement": "Mean Score", "setting": "[1]; tumor score 1 to 10, group mean", "value": "1.2 ± 0.8"}, {"measurement": "toxicity", "setting": "[2]; Taxol i.p. 15 mg/kg qd x 5", "value": "highly toxic"}, {"measurement": "Complete Response", "setting": "[2]; [5]", "value": 0}, {"measurement": "Partial Response", "setting": "[2]; [5]", "value": 0}, {"measurement": "Stable Disease", "setting": "[2]; [5]", "value": 0}, {"measurement": "Survivors", "setting": "[2]; [5]", "value": 0}, {"measurement": "Mean Score", "setting": "[2]; Taxol i.p. 15 mg/kg qd x 5, tumor score 1 to 10, group mean", "value": "0.6 ± 0.6"}, {"measurement": "MDS (n)", "setting": "[2]; i.v. qd x 1 (mg/kg: Taxol 24, 1351 75.3, 1401 107.6, 1418 107.6, Taxotere 70), 2.0 g cut-off, Day 60", "value": "21.9 ± 5.5 (5) days"}, {"measurement": "Complete Response", "setting": "[2]; [6]", "value": 0}, {"measurement": "Partial Response", "setting": "[2]; [6]", "value": 0}, {"measurement": "Survivors", "setting": "[2]; [6]", "value": 1}, {"measurement": "Toxic Deaths", "setting": "[2]; [6]", "value": 0}, {"measurement": "Mean Score", "setting": "[2]; i.v. qd x 1 (mg/kg: Taxol 24, 1351 75.3, 1401 107.6, 1418 107.6, Taxotere 70), tumor score 1 to 10, group mean", "value": "1.8 ± 0.4"}, {"measurement": "survival extension compared to Group 1 controls", "setting": "[2]; i.v. qd x 1 (mg/kg: Taxol 24, 1418 107.6, Taxotere 70)", "value": 87, "unit": "%"}, {"measurement": "% Total Response", "setting": "[3]", "value": 0, "unit": "%"}, {"measurement": "Complete Responses", "setting": "[3]", "value": 0}, {"measurement": "Partial Responses", "setting": "[3]", "value": 0}, {"measurement": "Stable Disease", "setting": "[3]", "value": 0}, {"measurement": "Survivors", "setting": "[3]", "value": 0}, {"measurement": "Toxic Deaths", "setting": "[3]", "value": 0}, {"measurement": "MDS (n)", "setting": "[3]; days until tumor reached 2.0 g", "value": "13.2 ± 1.4 (6) days"}, {"measurement": "Complete Responses", "setting": "[4]; female mice", "value": 4}, {"measurement": "Partial Responses", "setting": "[4]; female mice", "value": 1}, {"measurement": "Stable Disease", "setting": "[4]; female mice", "value": 1}, {"measurement": "Survivors", "setting": "[4]; female mice", "value": 6}, {"measurement": "Toxic Deaths", "setting": "[4]; female mice", "value": 1}, {"measurement": "Complete Responses", "setting": "[4]; male mice", "value": 1}, {"measurement": "Partial Responses", "setting": "[4]; male mice", "value": 2}, {"measurement": "Stable Disease", "setting": "[4]; male mice", "value": 1}, {"measurement": "Survivors", "setting": "[4]; male mice", "value": 4}, {"measurement": "Toxic Deaths", "setting": "[4]; male mice", "value": 0}]}
